#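 GI50 = concentration required for 50% inhibition of growth. The concentration for full growth arrest is given as TGI.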
# Key:
# Assay in all cases: inhibition of tumour cell growth, NCI panel, 384-well format
# [1] = test system: IGROV1 ovarian
# [2] = test system: NCI-H23 lung
# [3] = test system: U251 glioblastoma
# [4] = test system: M14 melanoma
# [5] = test system: HT29 colon
# [6] = test system: SK-MEL-28 melanoma
# [7] = test system: SW-620 colon
# [8] = test system: SK-OV-3 ovarian
# [9] = test system: MDA-MB-435 melanoma
# [10] = test system: HS 578T breast
# [11] = test system: LOX IMVI melanoma
# [12] = test system: HL-60(TB) leukemia
# [13] = test system: ACHN renal
# [14] = test system: OVCAR-5 ovarian
# [15] = test system: NCI/ADR-RES ovarian
# [16] = test system: HCT-116 colon
# [17] = test system: 786-0 renal
# [18] = test system: HOP-62 NSCLC
# [19] = test system: SF-539 CNS
# [20] = test system: BT-549 breast
# [21] = test system: MOLT-4 leukemia
# [22] = test system: T-47D breast
# [23] = test system: SF-295 CNS
# [24] = test system: MALME-3M melanoma
# [25] = test system: EKVX NSCLC
# [26] = test system: A498 renal
# [27] = test system: UACC-62 melanoma
# [28] = test system: MCF7 breast
# [29] = test system: HOP-92 NSCLC
# [30] = test system: PC-3 prostate
# [31] = test system: NCI-H226 lung
# [32] = test system: MDA-MB-468 breast
# [33] = test system: MDA-MB-231 breast
# [34] = test system: NCI-H322M lung
# [35] = test system: DU-145 prostate
# [36] = test system: RPMI-8226 leukemia
# [37] = test system: UO-31 renal
# [38] = test system: RXF 393 renal
# [39] = test system: SN12C renal
# [40] = test system: OVCAR-4 ovarian
# [41] = test system: KM12 colon
# [42] = test system: TK-10 renal
# [43] = test system: SNB-75 CNS
# [44] = test system: NCI-H522 lung
# [45] = test system: OVCAR-3 ovarian
# [46] = test system: K-562 leukemia
# [47] = test system: A549 NSCLC
# [48] = test system: CAKI-1 renal
# [49] = test system: UACC-257 melanoma
# [50] = test system: SF-268 CNS
# [51] = test system: SK-MEL-2 melanoma
# [52] = test system: CCRF-CEM leukemia
# [53] = test system: HCT-15 colon
# [54] = test system: SNB-19 CNS
# [55] = test system: OVCAR-8 ovarian
smiles,measurement,setting,value
O=P1(NCCCl)OCCCN1CCCl (stereo not given),GI50,[1],> 100 µM
same,TGI,[1],> 100 µM
same,GI50,[2],> 100 µM
same,TGI,[2],> 100 µM
same,GI50,[3],> 100 µM
same,TGI,[3],> 100 µM
same,GI50,[4],> 100 µM
same,TGI,[4],> 100 µM
same,GI50,[5],> 100 µM
same,TGI,[5],> 100 µM
same,GI50,[6],> 100 µM
same,TGI,[6],> 100 µM
same,GI50,[7],> 100 µM
same,TGI,[7],> 100 µM
same,GI50,[8],> 100 µM
same,TGI,[8],> 100 µM
same,GI50,[9],> 100 µM
same,TGI,[9],> 100 µM
same,GI50,[10],> 100 µM
same,TGI,[10],> 100 µM
same,GI50,[11],> 100 µM
same,TGI,[11],> 100 µM
same,GI50,[12],> 100 µM
same,TGI,[12],> 100 µM
same,GI50,[13],> 100 µM
same,TGI,[13],> 100 µM
same,GI50,[14],> 100 µM
same,TGI,[14],> 100 µM
same,GI50,[15],> 100 µM
same,TGI,[15],> 100 µM
same,GI50,[16],> 100 µM
same,TGI,[16],> 100 µM
same,GI50,[17],> 100 µM
same,TGI,[17],> 100 µM
same,GI50,[18],> 100 µM
same,TGI,[18],> 100 µM
same,GI50,[19],> 100 µM
same,TGI,[19],> 100 µM
same,GI50,[20],> 100 µM
same,TGI,[20],> 100 µM
same,GI50,[21],> 100 µM
same,TGI,[21],> 100 µM
same,GI50,[22],> 100 µM
same,TGI,[22],> 100 µM
same,GI50,[23],> 100 µM
same,TGI,[23],> 100 µM
same,GI50,[24],> 100 µM
same,TGI,[24],> 100 µM
same,GI50,[25],> 100 µM
same,TGI,[25],> 100 µM
same,GI50,[26],> 100 µM
same,TGI,[26],> 100 µM
same,GI50,[27],> 100 µM
same,TGI,[27],> 100 µM
same,GI50,[28],> 100 µM
same,TGI,[28],> 100 µM
same,GI50,[29],> 100 µM
same,TGI,[29],> 100 µM
same,GI50,[30],> 100 µM
same,TGI,[30],> 100 µM
same,GI50,[31],> 100 µM
same,TGI,[31],> 100 µM
same,GI50,[32],> 100 µM
same,TGI,[32],> 100 µM
same,GI50,[33],> 100 µM
same,TGI,[33],> 100 µM
same,GI50,[34],> 100 µM
same,TGI,[34],> 100 µM
same,GI50,[35],> 100 µM
same,TGI,[35],> 100 µM
same,GI50,[36],> 100 µM
same,TGI,[36],> 100 µM
same,GI50,[37],> 100 µM
same,TGI,[37],> 100 µM
same,GI50,[38],> 100 µM
same,TGI,[38],> 100 µM
same,GI50,[39],> 100 µM
same,TGI,[39],> 100 µM
same,GI50,[40],> 100 µM
same,TGI,[40],> 100 µM
same,GI50,[41],> 100 µM
same,TGI,[41],> 100 µM
same,GI50,[42],> 100 µM
same,TGI,[42],> 100 µM
same,GI50,[43],> 100 µM
same,TGI,[43],> 100 µM
same,GI50,[44],> 100 µM
same,TGI,[44],> 100 µM
same,GI50,[45],> 100 µM
same,TGI,[45],> 100 µM
same,GI50,[46],> 100 µM
same,TGI,[46],> 100 µM
same,GI50,[47],> 100 µM
same,TGI,[47],> 100 µM
same,GI50,[48],> 100 µM
same,TGI,[48],> 100 µM
same,GI50,[49],> 100 µM
same,TGI,[49],> 100 µM
same,GI50,[50],> 100 µM
same,TGI,[50],> 100 µM
same,GI50,[51],> 100 µM
same,TGI,[51],> 100 µM
same,GI50,[52],> 100 µM
same,TGI,[52],> 100 µM
same,GI50,[53],> 100 µM
same,TGI,[53],> 100 µM
same,GI50,[54],> 100 µM
same,TGI,[54],> 100 µM
same,GI50,[55],> 100 µM
same,TGI,[55],> 100 µM

# From PubChem BioAssay (NCI)
